Measurements published in US11077039B2, “Topical skin lightening additive and composition with amino acids and nicotinamide compounds” (Conopco, Inc., priority 2016, dated 2021).
Where two headings read alike, the source gives them in different places.

How the values were obtained:
[1] = test system: Human primary melanocytes; assay: Melanin content assay; type: cell-based; details: Melanocyte, 72 h
Procedure: Human primary melanocytes (Cascade Biologics, now ThermoFisher Scientific) were grown in melanocytes growth medium (MGM) with human melanocyte growth supplement (both media components from ThermoFisher Scientific). Melanocytes were seeded at 5×10^4 cells/well in 24 well-plates and incubated in a humidified incubator at 37° C. with 5% CO2 atmosphere. After 24 hours of incubation, cell cultures were treated with the GAP amino acids or additional test reagents above-described, alone or in combination, as described in examples below. The vehicle control consisted of cells treated with the vehicle (0.002 mM NaOH) alone. After treatment, cells were again incubated for 72 hours in a humidified incubator at 37° C. with 5% CO2 atmosphere. At the end of the 72 hour incubation, the culture medium was replaced with 120 uL/well of melanin content assay reagent (10% DMSO in 1M sodium hydroxide) and incubated for 1 hour at 60° C. in a shaker incubator. The supernatant was then transferred to a 384 well plate. The absorbance was measured by spectrophotometric analysis at 405 nm with a micro plate reader (GEnios Pro, Tecan).
The spectrophotometric optical density at 405 nm for untreated cells (no active) was considered as 100% melanin content. Relative melanin content for treated samples was calculated with normalization based on the untreated (media/vehide) control.

tyrosinase = target: T1, tyrosinase (Homo sapiens, UniProt P14679); assay: Tyrosinase activity assay (in situ, melanocyte lysate); type: cell-based; details: Table 1B, 72 h
T1 construct: host or cells: human primary melanocytes
T1 sequence (P14679 19-529): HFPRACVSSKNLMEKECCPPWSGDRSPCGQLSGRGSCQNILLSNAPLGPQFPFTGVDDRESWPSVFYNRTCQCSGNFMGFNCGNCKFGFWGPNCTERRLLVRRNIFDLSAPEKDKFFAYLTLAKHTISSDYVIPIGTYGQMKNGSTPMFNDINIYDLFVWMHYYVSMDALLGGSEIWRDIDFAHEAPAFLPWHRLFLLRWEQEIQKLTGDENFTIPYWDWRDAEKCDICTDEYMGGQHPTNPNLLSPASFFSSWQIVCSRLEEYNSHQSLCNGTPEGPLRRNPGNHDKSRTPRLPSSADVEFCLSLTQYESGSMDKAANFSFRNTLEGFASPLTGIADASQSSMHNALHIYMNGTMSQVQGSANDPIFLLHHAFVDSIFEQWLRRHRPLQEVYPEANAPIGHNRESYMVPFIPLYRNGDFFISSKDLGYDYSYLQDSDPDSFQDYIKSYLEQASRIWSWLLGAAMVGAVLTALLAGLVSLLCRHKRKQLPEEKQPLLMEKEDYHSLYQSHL
Procedure: Human primary melanocytes (Cascade Biologics, now ThermoFisher Scientific) were grown in melanocytes growth medium (MGM) with human melanocyte growth supplement (both media components from ThermoFisher Scientific). Melanocytes were seeded at 1×10^4 cells/well in a 96 wells plate and cultures left undisturbed for 24 hours in a 5% CO2 humidifed incubator at 37° C. At 24 hrs post-seeding, cells were treated with GAP amino acids or additional test reagents above-described, alone or in combination, as described in examples below and left undisturbed for another 72 hours. Subsequently, cell viability was assessed and the cells were then lysed and progressed for determination of in situ tyrosinase activity. Cultures were rinsed twice with 1× phosphate-buffered saline and lysed with 40 uL of 0.5% TritonX 100 for 1 hr on an ice bed. In situ tyrosinase activity was visualized by addition of 60 μl of 50 mM potassium phosphate buffer (pH 6.8) containing 2 mM DOPA (3,4 dihydroxy phenylalanine) and 4 mM MBTH reagent (3-Methyl-2-Benzothiazolinone hydrazone hydrochloride) for 1 hour at 37° C. The reaction was stopped by the addition of 100 uL of ice-cold 10% tricholoracetic acid and then centrifuged at approximately 300 g for 10 minutes at 4° C. The soluble supernatant was separated from the pellet and the optical density read in a TECAN plate-reader (540 nm filter). The spectrophotometric optical density at 540 nm for untreated cells (media/vehicle) is considered as 100% tyrosinase activity. Tyrosinase activity is expressed after correction for cell numbers (activity/viability) and represented as % control.

NC(=O)c1cccnc1 [Nicotinamide, nicotinamide]
inhibition at 5000 µM ([1]; Table 1A, Nicotinamide 5 mM, alone or with GAP, read-out: Melanin synthesis inhibition, Mean of % Inhibition): 9%
inhibition at 10000 µM ([1]; Table 1A, Nicotinamide 10 mM, alone or with GAP, read-out: Melanin synthesis inhibition, Mean of % Inhibition): 10%
inhibition at 5000 µM (tyrosinase; Nicotinamide 5 mM, alone or with GAP): 16%
inhibition at 10000 µM (tyrosinase; Nicotinamide 10 mM, alone or with GAP): 24%

CNC(=O)c1cccnc1 [N-methyl Nicotinamide, n-methyl-nicotinamide]
inhibition at 5000 µM ([1]; Table 1C, N-methyl Nicotinamide 5 mM, alone or with GAP, read-out: Melanin synthesis inhibition, Mean of % Inhibition): 0%
inhibition at 10000 µM ([1]; Table 1C, N-methyl Nicotinamide 10 mM, alone or with GAP, read-out: Melanin synthesis inhibition, Mean of % Inhibition): 7%

NC(=O)c1ccccn1 [Picolinamide, picolinamide]
inhibition at 5000 µM ([1]; Table 2, Picolinamide 5 mM, alone or with GAP, read-out: Melanin synthesis inhibition, Mean of % Inhibition): 6%
inhibition at 10000 µM ([1]; Table 2, Picolinamide 10 mM, alone or with GAP, read-out: Melanin synthesis inhibition, Mean of % Inhibition): 32%

O=C(O)c1cccnc1 [Niacin, niacin]
inhibition at 5000 µM ([1]; Table 2B, Niacin 5 mM, alone or with GAP, read-out: Melanin Synthesis inhibition, Mean of % Inhibition): -7%
inhibition at 10000 µM ([1]; Table 2B, Niacin 10 mM, alone or with GAP, read-out: Melanin Synthesis inhibition, Mean of % Inhibition): 14%

NC(=O)c1ccc[n+]([C@@H]2O[C@H](CO)[C@@H](O)[C@H]2O)c1 [Nicotinamide Riboside, nicotinamide riboside]
inhibition at 1 µM ([1]; Table 1E, Nicotinamide Riboside 1 uM, alone or with GAP, read-out: Melanin synthesis inhibition, Mean of % Inhibition): 4%
inhibition at 2.5 µM ([1]; Table 1E, Nicotinamide Riboside 2.5 uM, alone or with GAP, read-out: Melanin synthesis inhibition, Mean of % Inhibition): 9%

NC(=O)c1ccncc1 [Isonicotinamide, isonicotinamide]
inhibition at 5000 µM ([1]; Table 1D, Isonicotinamide 5 mM, alone or with GAP, read-out: Melanin synthesis inhibition, Mean of % Inhibition): 4%
inhibition at 10000 µM ([1]; Table 1D, Isonicotinamide 10 mM, alone or with GAP, read-out: Melanin synthesis inhibition, Mean of % Inhibition): 20%

CCCCCCc1ccc(O)cc1O [HR, 4-hexylresorcinol]
inhibition at 10 µM ([1]; Table 1A, HR 10 uM, read-out: Melanin synthesis inhibition, Mean of % Inhibition): 35%
inhibition at 10 µM ([1]; Table 1C, HR 10 μM, read-out: Melanin synthesis inhibition, Mean of % Inhibition): 26%
inhibition at 10 µM ([1]; Table 1D, HR 10 uM, read-out: Melanin synthesis inhibition, Mean of % Inhibition): 32%
inhibition at 10 µM ([1]; Table 1E, HR 10 uM, read-out: Melanin synthesis inhibition, Mean of % Inhibition): 28%
inhibition at 10 µM ([1]; Table 2, HR 10 uM, read-out: Melanin synthesis inhibition, Mean of % Inhibition): 36%
inhibition at 10 µM ([1]; Table 2B, HR 10 uM, read-out: Melanin Synthesis inhibition, Mean of % Inhibition): 32%
inhibition at 10 µM (tyrosinase; HR 10 uM): 67%
